Source: PubChem BioAssay AID256 (DTP/NCI, 2004)
“And” between values parts separate entries of the source, which are not always exact repeats. Equal entries are not always repeated. Toxic doses and inconclusive results are not listed. Rule for the calls: active = survival T/C of 150% or more; inactive = T/C below 125% in these data.

Tested on: CD2F1 mice, L1210 leukemia ip, survival T/C
Test: NCI In Vivo Anticancer Drug Screen. Data for tumor model L1210 Leukemia (intraperitoneal) in CD2F1 (CDF1) mice
Conditions: higher = longer survival
Summary of the method: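 In this screen, transplantable tumors were grown in mice given either the compound or its vehicle. Results were expressed as the treated measurement relative to the control measurement.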

[1] = endpoint: mean survival time, dose: 100.0 mg/kg/injection, schedule: Q01DX009 (ip), vehicle: saline with Tween-80
[2] = endpoint: mean survival time, dose: 200.0 mg/kg/injection, schedule: Q01DX009 (ip), vehicle: saline with Tween-80
[3] = endpoint: mean survival time, dose: 400.0 mg/kg/injection, schedule: Q01DX009 (ip), vehicle: saline with Tween-80
[4] = endpoint: mean survival time, dose: 50.0 mg/kg/injection, schedule: Q01DX009 (ip), vehicle: saline with Tween-80
[5] = endpoint: mean survival time, dose: 100.0 mg/kg/injection, schedule: Q04DX003 (ip), vehicle: saline with Tween-80
[6] = endpoint: mean survival time, dose: 200.0 mg/kg/injection, schedule: Q04DX003 (ip), vehicle: saline with Tween-80
[7] = endpoint: mean survival time, dose: 400.0 mg/kg/injection, schedule: Q04DX003 (ip), vehicle: saline with Tween-80
[8] = endpoint: mean survival time, dose: 12.5 mg/kg/injection, schedule: Q01DX009 (ip), vehicle: saline with Tween-80
[9] = endpoint: mean survival time, dose: 25.0 mg/kg/injection, schedule: Q01DX009 (ip), vehicle: saline with Tween-80

Measured: T/C

Cc1cc(O)c(C)c(C)c1N=Nc1ccccc1
inactive: endpoint: mean survival time, dose: 100.0 mg/kg/injection, schedule: Q01DX005 (ip), vehicle: saline with Tween-80 97 % of control | endpoint: mean survival time, dose: 200.0 mg/kg/injection, schedule: Q01DX005 (ip), vehicle: saline with Tween-80 97 % of control | endpoint: mean survival time, dose: 400.0 mg/kg/injection, schedule: Q01DX005 (ip), vehicle: saline with Tween-80 97 % of control

CN1C2Cc3cc4c(cc3C1Cc1cc3c(cc12)OCO3)OCO4
inactive: endpoint: mean survival time, dose: 75.0 mg/kg/injection, schedule: Q01DX001 (ip), vehicle: saline 100 % of control | endpoint: mean survival time, dose: 150.0 mg/kg/injection, schedule: Q01DX001 (ip), vehicle: saline 94 % of control

O=C1CCC(OC(=O)c2ccccc2)CCN1 (stereo not given)
inactive: [1] 87 % of control | [2] 98 % of control | [3] 90 % of control

c1ccc(Sc2cccc3c(-c4ccccc4)c4cccc5c4c(c23)C[S+]5c2ccccc2)cc1 (stereo not given)
inactive: endpoint: mean survival time, dose: 3.13 mg/kg/injection, schedule: Q04DX003 (ip), vehicle: saline with Tween-80 96 % of control | endpoint: mean survival time, dose: 6.25 mg/kg/injection, schedule: Q04DX003 (ip), vehicle: saline with Tween-80 96 % of control | endpoint: mean survival time, dose: 12.5 mg/kg/injection, schedule: Q04DX003 (ip), vehicle: saline with Tween-80 93 % of control

CCOC/C(O)=C(\C#N)c1ccc(Cl)cc1
inactive: endpoint: mean survival time, dose: 12.5 mg/kg/injection, schedule: Q01DX009 (ip), vehicle: other 94 % of control and 104 % of control | endpoint: mean survival time, dose: 12.5 mg/kg/injection, schedule: Q04DX003 (ip), vehicle: other 104 % of control | endpoint: mean survival time, dose: 25.0 mg/kg/injection, schedule: Q01DX001 (ip), vehicle: other 93 % of control | endpoint: mean survival time, dose: 25.0 mg/kg/injection, schedule: Q01DX009 (ip), vehicle: other 95 % of control and 100 % of control | endpoint: mean survival time, dose: 25.0 mg/kg/injection, schedule: Q04DX002 (ip), vehicle: other 116 % of control and 111 % of control | endpoint: mean survival time, dose: 25.0 mg/kg/injection, schedule: Q04DX003 (ip), vehicle: other 101 % of control | endpoint: mean survival time, dose: 50.0 mg/kg/injection, schedule: Q01DX001 (ip), vehicle: other 100 % of control | endpoint: mean survival time, dose: 50.0 mg/kg/injection, schedule: Q01DX009 (ip), vehicle: other 93 % of control and 95 % of control | endpoint: mean survival time, dose: 50.0 mg/kg/injection, schedule: Q04DX002 (ip), vehicle: other 94 % of control and 99 % of control | endpoint: mean survival time, dose: 50.0 mg/kg/injection, schedule: Q04DX003 (ip), vehicle: other 101 % of control

C=C(C(=O)O)C(N)C(=O)O (stereo not given)
inactive: endpoint: median survival time, dose: 25.0 mg/kg/injection, schedule: Q01DX009 (ip), vehicle: suspension in saline 96 % of control | endpoint: median survival time, dose: 50.0 mg/kg/injection, schedule: Q01DX009 (ip), vehicle: suspension in saline 108 % of control | endpoint: median survival time, dose: 100.0 mg/kg/injection, schedule: Q01DX009 (ip), vehicle: suspension in saline 103 % of control | endpoint: median survival time, dose: 200.0 mg/kg/injection, schedule: Q01DX009 (ip), vehicle: suspension in saline 94 % of control | endpoint: median survival time, dose: 400.0 mg/kg/injection, schedule: Q01DX009 (ip), vehicle: suspension in saline 91 % of control

O=c1ccc2ccc(O)cc2o1
inactive: [4] 101 % of control | endpoint: mean survival time, dose: 100.0 mg/kg/injection, schedule: Q01DX001 (ip), vehicle: saline 103 % of control | [1] 93 % of control | endpoint: mean survival time, dose: 200.0 mg/kg/injection, schedule: Q01DX001 (ip), vehicle: saline 108 % of control | [2] 97 % of control | endpoint: mean survival time, dose: 400.0 mg/kg/injection, schedule: Q01DX001 (ip), vehicle: saline 103 % of control

Cc1cc(=O)c(C#N)c(-c2ccccc2)[nH]1
inactive: endpoint: mean survival time, dose: 100.0 mg/kg/injection, schedule: Q04DX002 (ip), vehicle: saline with Tween-80 96 % of control | endpoint: mean survival time, dose: 200.0 mg/kg/injection, schedule: Q04DX002 (ip), vehicle: saline with Tween-80 100 % of control | endpoint: mean survival time, dose: 400.0 mg/kg/injection, schedule: Q04DX002 (ip), vehicle: saline with Tween-80 87 % of control

CCc1ccc(OS(=O)(=O)c2cccc([N+](=O)[O-])c2)cc1
inactive: [1] 98 % of control | [5] 94 % of control | [2] 91 % of control | [6] 105 % of control | [3] 102 % of control | [7] 100 % of control

O=S(=O)(Nc1ccc(NS(=O)(=O)c2ccccc2)c2ccccc12)c1ccccc1
inactive: [5] 97 % of control | [6] 91 % of control | [7] 96 % of control

COc1cc(OC)c2c(c1Cl)OCC2=O
inactive: [1] 91 % of control | [5] 103 % of control | [2] 91 % of control | [6] 94 % of control | [7] 97 % of control

C/C=C1\C[C@@H]2C(OC)Nc3cc(O)c(OC)cc3C(=O)N2C1 (stereo not given in full)
inactive: endpoint: mean survival time, dose: 0.03 mg/kg/injection, schedule: Q01DX009 (ip), vehicle: saline 103 % of control | endpoint: mean survival time, dose: 0.03 mg/kg/injection, schedule: Q01DX009 (ip), vehicle: suspension in saline 102 % of control | endpoint: mean survival time, dose: 0.06 mg/kg/injection, schedule: Q01DX009 (ip), vehicle: saline 104 % of control | endpoint: mean survival time, dose: 0.06 mg/kg/injection, schedule: Q01DX009 (ip), vehicle: suspension in saline 101 % of control | endpoint: mean survival time, dose: 0.12 mg/kg/injection, schedule: Q01DX009 (ip), vehicle: saline 109 % of control | endpoint: mean survival time, dose: 0.12 mg/kg/injection, schedule: Q01DX009 (ip), vehicle: suspension in saline 108 % of control | endpoint: mean survival time, dose: 0.25 mg/kg/injection, schedule: Q01DX009 (ip), vehicle: saline 106 % of control | endpoint: mean survival time, dose: 0.25 mg/kg/injection, schedule: Q01DX009 (ip), vehicle: suspension in saline 120 % of control | endpoint: mean survival time, dose: 0.5 mg/kg/injection, schedule: Q01DX009 (ip), vehicle: saline 118 % of control | endpoint: mean survival time, dose: 0.5 mg/kg/injection, schedule: Q01DX009 (ip), vehicle: suspension in saline 123 % of control | endpoint: mean survival time, dose: 0.75 mg/kg/injection, schedule: Q04DX002 (ip), vehicle: saline 106 % of control | endpoint: mean survival time, dose: 1.0 mg/kg/injection, schedule: Q01DX009 (ip), vehicle: saline 110 % of control | endpoint: mean survival time, dose: 1.0 mg/kg/injection, schedule: Q01DX009 (ip), vehicle: suspension in saline 92 % of control | endpoint: mean survival time, dose: 1.5 mg/kg/injection, schedule: Q04DX002 (ip), vehicle: saline 114 % of control

CC(Oc1ccccc1-c1ccccc1)C(=O)N(C)C (stereo not given)
inactive: [8] 93 % of control and 102 % of control | [9] 95 % of control and 100 % of control | [4] 97 % of control and 104 % of control | [1] 97 % of control and 104 % of control | [2] 95 % of control and 102 % of control | [3] 97 % of control and 104 % of control

O=CNc1cccc2ccc3c4ccccc4ccc3c12
inactive: [5] 98 % of control | [7] 91 % of control

COc1ccc(N=NNc2ccc(OC)cc2)cc1
inactive: endpoint: mean survival time, dose: 6.25 mg/kg/injection, schedule: Q01DX009 (ip), vehicle: saline with Tween-80 100 % of control | [8] 96 % of control | [9] 102 % of control

c1ccc2nc3c(nc2c1)[nH]c1ccccc13
inactive: endpoint: mean survival time, dose: 100.0 mg/kg/injection, schedule: Q01DX001 (ip), vehicle: saline with Tween-80 100 % of control | endpoint: mean survival time, dose: 200.0 mg/kg/injection, schedule: Q01DX001 (ip), vehicle: saline with Tween-80 92 % of control | endpoint: mean survival time, dose: 400.0 mg/kg/injection, schedule: Q01DX001 (ip), vehicle: saline with Tween-80 89 % of control

COS(=O)(=O)O
inactive: endpoint: mean survival time, dose: 100.0 mg/kg/injection, schedule: Q04DX003 (ip), vehicle: saline 96 % of control | endpoint: mean survival time, dose: 200.0 mg/kg/injection, schedule: Q04DX003 (ip), vehicle: saline 96 % of control

N#Cc1c(N)[nH]c2ccc(Sc3ccccc3)cc12
inactive: endpoint: median survival time, dose: 6.25 mg/kg/injection, schedule: Q01DX005 (ip), vehicle: saline with Tween-80 108 % of control | endpoint: median survival time, dose: 12.5 mg/kg/injection, schedule: Q01DX005 (ip), vehicle: saline with Tween-80 101 % of control and 109 % of control | endpoint: median survival time, dose: 25.0 mg/kg/injection, schedule: Q01DX005 (ip), vehicle: saline with Tween-80 102 % of control and 112 % of control | endpoint: median survival time, dose: 43.0 mg/kg/injection, schedule: Q01DX005 (ip), vehicle: saline with Tween-80 112 % of control | endpoint: median survival time, dose: 43.2 mg/kg/injection, schedule: Q01DX005 (ip), vehicle: saline with Tween-80 117 % of control | endpoint: median survival time, dose: 50.0 mg/kg/injection, schedule: Q01DX005 (ip), vehicle: saline with Tween-80 123 % of control and 110 % of control | endpoint: median survival time, dose: 100.0 mg/kg/injection, schedule: Q01DX005 (ip), vehicle: saline with Tween-80 101 % of control
active: endpoint: median survival time, dose: 120.0 mg/kg/injection, schedule: Q01DX005 (ip), vehicle: saline with Tween-80 153 % of control and 164 % of control

CCC12CCCN=C1c1c([nH]c3ccccc13)CC2 (stereo not given)
inactive: endpoint: mean survival time, dose: 6.25 mg/kg/injection, schedule: Q04DX002 (ip), vehicle: saline with Tween-80 102 % of control | endpoint: mean survival time, dose: 12.5 mg/kg/injection, schedule: Q04DX002 (ip), vehicle: saline with Tween-80 104 % of control | endpoint: mean survival time, dose: 25.0 mg/kg/injection, schedule: Q04DX002 (ip), vehicle: saline with Tween-80 98 % of control
